From publication PMC12383972, “Oral Pharmacokinetic Evaluation of a Microemulsion-Based Delivery System for Novel A190 Prodrugs” (Biomolecules, 2025)
pEC50: −log10 of the molar value.

Key:
HepG2 cells = tested on: HepG2 cells; set-up: method as in PMID 39879378; conditions: HepG2, in 0.2% DMSO, 24 h and 48 h; cited from earlier work
hERG = tested on: hERG; set-up: method as in PMID 32582345; conditions: preclinical assessment; cited from earlier work
Caco-2 cells = tested on: Caco-2 cells; set-up: method as in PMID 39879378; conditions: Caco-2, in 0.2% DMSO, 24 h and 48 h; cited from earlier work
PPARα = tested on: PPARα; set-up: method as in PMID 32096640, PMID 39961437; conditions: cited from earlier work
CYP450 = tested on: CYP450; set-up: method as in PMID 32582345; conditions: preclinical assessment; cited from earlier work
[1] = set-up: method as in PMID 32582345; conditions: preclinical assessment; cited from earlier work
[2] = set-up: method as in PMID 39879378; conditions: PAMPA, cited from earlier work
[3] = Bioconversion of prodrugs in rabbit plasma; assay type: in vitro ADME; conditions: 37 °C; for half-life at 100 μM / Prodrug bioconversion half-life (Rabbit plasma): 100 μM prodrug; for half-life at 100 μM: pooled rabbit plasma; for Prodrug bioconversion half-life (Rabbit plasma): Figure 3E
Description: (§1) Conversion of the respective prodrugs to the parent drug A190 was assessed in pooled rat and rabbit plasma. Following pre-incubation of plasma at 37 °C for 5 min, stock solution of each prodrug (10 mM) was spiked into the plasma to reach a final concentration of 100 μM. The mixture was incubated at 37 °C, 200 rpm on a temperature-controlled orbital shaker. Incubation mixture (200 μL) was withdrawn at pre-determined time points, and the reaction was terminated by the addition of 700 μL of ice cold ACN. 100 μL of internal standard (0.5 μg/mL of fenofibric acid) was then spiked, and the samples were vortexed and centrifuged at 10,000× g for 10 min. The resulting supernatants were collected and filtered using PTFE filters and injected into HPLC-UV system. The LC system was a reverse phased Shimadzu Prominence (Kyoto, Japan) using a Pursuit 5 C18 column. Isocratic separation was performed with mobile phase consisting of ACN/water (80/20 v/v) containing 0.1% trifluoroacetic acid and monitored at a UV detection of 227 nm.

[4] = Chemical hydrolysis stability in PBS pH 7.4; assay type: physicochemical; conditions: PBS pH 7.4, 37 °C, 100 μM
Description: Chemical hydrolysis stability of each prodrug was assessed in a physiological pH 7.4 using phosphate buffered saline solution (PBS) as previously described. After preincubation of PBS solution at 37 °C for 5 min, stock solution of each prodrug (10 mM) was spiked to a final concentration of 100 μM. The samples were then incubated at 37 °C on a temperature-controlled orbital shaker operating at 200 rpm. At predetermined time points, 200 μL of incubation mixture was withdrawn and quenched with 100 μL of internal standard (0.5 μg/mL of fenofibric acid) and 700 μL ice cold ACN. Drug concentration was analyzed using HPLC-UV method as described earlier to assess the amount of prodrug recovered compared to the starting timepoint.

[5] = Bioconversion of prodrugs in rat plasma; assay type: in vitro ADME; conditions: 37 °C; for half-life at 100 μM / Prodrug bioconversion half-life (Rat plasma): 100 μM prodrug; for half-life at 100 μM: pooled rat plasma; for Prodrug bioconversion half-life (Rat plasma): Figure 3E
Description: as §1

Row | Compound | concentration up to which safe (HepG2 cells) [µM] | hERG-related cardiotoxicity (hERG) | concentration up to which safe (Caco-2 cells) [µM] | subtype selectivity (PPARα; PPAR-α over γ/δ isoforms) [fold] | pEC50 (PPARα; PPARα agonism) | CYP450 liability (CYP450) | microsomal metabolic stability [1] | effective permeability (Pe), dispersion form ([2]; dispersion form) | effective permeability (Pe), A190 in PBS ([2]; in PBS) | half-life at 100 μM [3] [h] | Prodrug bioconversion half-life (Rabbit plasma) [3] [h] | drug remaining at 2 h [4] | half-life at 100 μM [5] [h] | Prodrug bioconversion half-life (Rat plasma) [5] [h] | original concentration retained after 120 min in rabbit plasma ([3]; 100 μM, 120 min) [%] | original concentration retained after 120 min in rat plasma ([5]; 100 μM, 120 min) [%]
1 | Cc1cc(CNc2cccc(C(=O)O)c2)ccc1OCc1ccc(F)cc1 [A190, 3-((4-((4-fluorobenzyl)oxy)-3-methylbenzyl)amino)benzoic acid] | < 50 | absence | < 50 | > 2700 | > 7.40 | absence | acceptable | 0.13 ± 0.04 × 10^−6 cm/s | 0.09 ± 0.02 × 10^−6 cm/s |  |  |  |  |  |  | 
2 | CCOC(=O)c1cccc(NCc2ccc(OCc3ccc(F)cc3)c(C)c2)c1 [A190-PD-14, Ethyl 3-((4-((4-Fluorobenzyl)oxy)-3-Methylbenzyl)amino)benzoate] |  |  |  |  |  |  |  |  |  | 8.2 | 8.2 | 10% | 2.6 | 2.6 |  | 
3 | COC(=O)c1cccc(NCc2ccc(OCc3ccc(F)cc3)c(C)c2)c1 [A190-PD-9, Methyl 3-((4-((4-Fluorobenzyl)oxy)-3-Methylbenzyl)amino)benzoate] |  |  |  |  |  |  |  |  |  | 7.2 | 7.2 | about 40% | 9.6 | 9.6 | ≥ 80 | ≥ 80
4 | Cc1cc(CNc2cccc(C(=O)OC(C)C)c2)ccc1OCc1ccc(F)cc1 [A190-PD-154, Isopropyl 3-((4-((4-Fluorobenzyl)oxy)-3-Methylbenzyl)amino)benzoate] |  |  |  |  |  |  |  |  |  | 1.4 | 1.4 | 10% | 6.8 | 6.8 |  | 
